Reference: US20240189278A1, “NOVEL COMPOUNDS AND METHODS FOR INCREASING KLOTHO GENE EXPRESSION” (Klotho Therapeutics, Inc., priority 2017, published 2024)
pEC50: −log10 of the molar value.

Columns and labels:
[1] = system: Klotho gene expression; test: Luciferase reporter assay to evaluate Klotho gene expression changes; type: cell-based; conditions: overnight incubation, luciferase luminescence
Description: Table 2. Luciferase Reporter Assay to Evaluate Klotho Gene Expression Changes
HEK293 cells/pKlotho_Luc in suspension (20 μl/well, density 0.25×10^6 cells/ml) were dispensed into assay-ready 384-well tissue culture treated plates (plates (BD BioCoat Poly-D-Lys coated, Cat.354661) preloaded with 1000× stock of test compounds in DMSO (20 nL/well, 10 concentration points, 3× dilutions from 20 uM to 0.001 uM). Growth medium: DMEM, 1% FBS, Pen/Strep, 600 ug/ml G418. Negative control: DMSO. Positive control: 2 uM Compound H from King, et. al. Biochem. J. (2012) 441, 453-461. Cells were incubated in CO2 incubator overnight. At the end of the incubation time, 20 ul/well of the luciferase assay solution (Steady-Luc Firefly HTS Assay Biotium, Cat 30028) were added to the plate and mixed on a VibraTranslator (Union Scientific). Plates were incubated for 5 min at 25° C. Steady glow luminescence signal was read using a BMG Labtech PHERAstar FSX reader.

[2] = system: aged male Wistar rats; test: Aged rat efficacy model, blood pressure by tail-cuff method; type: in vivo
Description: The aim of the study was to assess the efficacy of test compound in improving physiologic parameters in aged rats such as blood pressure values. The experiment included daily repeated administrations of the test compound for 14 consecutive days and follow up observations within a […] post-dosing period. Body weight (BWt) were monitored daily during the dosing period and twice a week during the post-dosing period. Blood pressure (BP) was measured on 0, 7th, 14th, 21s t and 28th day of the study. Study design, animal selection, handling and treatment were all in accordance with the CROs efficacy study protocols and Standard Operation Procedure, and the Animal Care Guidelines.
Fifteen aged male Wistar rats (22.5 months old; initial body weights ranged from 474.8 g to 672.4 g with an average body weight across the groups of 540.8 g) were randomized into two groups by body weight and systolic blood pressure: 11 animals distributed to compound 49-treated group and 4 animals—to vehicle-treated group. […]
Blood pressure was measured by the Tail-Cuff Method using the Coda Non-invasive Blood-Pressure System. Individual body weights and relative changes in body weight (compared to the appropriate weight on Day 0) were recorded.

[3] = Homo sapiens, HEK293, HEK293 cells/pKlotho_Luc

SMILES | pEC50 [1, 3] | pEC50 ([1]; HEK293 cells/pKlotho_Luc) | Activation, % ([1]; HEK293 cells/pKlotho_Luc) | Systolic blood pressure within the treated group during the study ([2]; 50 mg/kg PO daily for 14 days, 28-day study) | Systolic blood pressure, treated group vs vehicle-treated group ([2]; 50 mg/kg PO daily, Day 14)
C1=C(CCNc2ncnc3c2cnn3-c2ccccc2)CCCCC1 [Compound 22] | 6.11 | – | 96% | – | –
C1=C(CCNc2ncnc3sccc23)CCCC1 [Compound 23] | 6.07 | – | 133% | – | –
C1=C(CCNc2ncnc3ccsc23)CCCCC1 [Compound 24] | 6.06 | – | 122% | – | –
CCn1ncc2c(NCCC3CC=CCC3)ncnc21 (stereo not drawn) [Compound 26] | 6.04 | – | 121% | – | –
C1=C(CCNc2ncnc3scnc23)CCCCC1 [Compound 27] | 6.04 | – | 101% | – | –
CCC1(CC)CCCN(c2ncnc3c2ncn3C2CC2)CC1 [Compound 28] | 6.00 | – | 101% | – | –
C1=C(CCNc2ncnc3scnc23)CCCC1 [Compound 29] | 5.96 | – | 103% | – | –
c1nc(NCCC2CCCC2)c2ncn(C3CC3)c2n1 [Compound 30] | 5.92 | – | 87% | – | –
c1nc(NCCC2CCCCC2)c2ncn(C3CC3)c2n1 [Compound 31] | 5.96 | – | 109% | – | –
Clc1cccc(CNc2ncnc3c2ncn3C2CC2)c1 [Compound 34] | 5.70 | – | 102% | – | –
CC(C)CNc1ncnc2c1ncn2C1CC1 [Compound 35] | 5.82 | – | 40% | – | –
c1nc(NCC2CCC2)c2ncn(C3CC3)c2n1 [Compound 36] | 6.08 | – | 68% | – | –
CC1(CNc2ncnc3c2ncn3C2CC2)CCCCC1 [Compound 39] | 5.44 | – | 77% | – | –
CC1(CNc2ncnc3c2ncn3C2CC2)CCCC1 [Compound 40] | 5.54 | – | 89% | – | –
c1ccc([C@@H]2C[C@H]2Nc2ncnc3c2ncn3C2CC2)cc1 [Compound 41] | < 4.52 | – | – | – | –
Clc1ccc(CNc2ncnc3c2ncn3C2CC2)cc1Cl [Compound 43] | < 4.52 | – | – | – | –
CC(C)(CNc1ncnc2c1ncn2C1CC1)C1=CCCCC1 [Compound 44] | 4.62 | – | 58% | – | –
CC1(C)CCC(CNc2ncnc3c2ncn3C2CC2)CC1 [Compound 45] | 4.88 | – | 59% | – | –
c1nc(NCC23CCC(CC2)CC3)c2ncn(C3CC3)c2n1 [Compound 46] | 5.77 | – | 86% | – | –
FC1(CNc2ncnc3c2ncn3C2CC2)CCCCC1 [Compound 47] | 6.05 | – | 86% | – | –
C1=CC[C@@H](CNc2ncnc3c2ncn3C2CC2)CC1 [Compound 49] | – | 7.00 | 90% | considerable decrease | Significant difference

Continued by rising pEC50 [1, 3], values first:

pEC50 [1, 3] | pEC50 ([1]; HEK293 cells/pKlotho_Luc) | SMILES | Activation, % ([1]; HEK293 cells/pKlotho_Luc) | Systolic blood pressure within the treated group during the study ([2]; 50 mg/kg PO daily for 14 days, 28-day study) | Systolic blood pressure, treated group vs vehicle-treated group ([2]; 50 mg/kg PO daily, Day 14)
6.14 | – | CC(C)CCNc1ncnc2c1ncn2C1CC1 [Compound 32] | 77% | – | –
6.17 | – | Cc1cc2c(NCCC3=CCCCC3)ncnc2s1 [Compound 21] | 133% | – | –
6.21 | – | C1=C(CCNc2ncnc3c2ncn3C2CC2)CCC1 [Compound 42] | 79% | – | –
6.22 | – | N#CCCn1ncc2c(NCCC3=CCCCC3)ncnc21 [Compound 20] | 120% | – | –
6.30 | – | C1=CCC(CCNc2ncnc3c2ncn3C2CC2)CC1 (stereo not drawn) [Compound 19] | 152% | – | –
6.35 | – | Cc1cc2c(NCCC3=CCCCCC3)ncnc2s1 [Compound 18] | 48% | – | –
6.42 | – | CN(CCC1CCCCC1)c1ncnc2c1ncn2C1CC1 [Compound 17] | 114% | – | –
6.42 | – | c1nc(NCC2CCCCC2)c2ncn(C3CC3)c2n1 [Compound 33] | 89% | – | –
6.43 | – | CCn1ncc2c(NCCC3=CCCCC3)ncnc21 [Compound 16] | 151% | – | –
6.47 | – | C1=C(CCNc2ncnc3c2ncn3C2CC2)CCCCC1 [Compound 38] | 105% | – | –
6.57 | – | C1=C(CCNc2ncnc3c2cnn3-c2ccccc2)CCCC1 [Compound 15] | 203% | – | –
6.59 | – | N#CCCn1ncc2c(NCCC3=CCCCCC3)ncnc21 [Compound 14] | 122% | – | –
6.60 | – | Fc1cccc2ncnc(NCCC3=CCCCC3)c12 [Compound 13] | 86% | – | –
6.68 | – | Nc1c(NCCC2=CCCCC2)ncnc1-n1cccn1 [Compound 11] | 125% | – | –
6.68 | – | Cc1csc2ncnc(NCCC3=CCCCCC3)c12 [Compound 12] | 98% | – | –
6.70 | – | Nc1c(NCCC2=CCCCCC2)ncnc1-n1cccn1 [Compound 10] | 98% | – | –
6.74 | – | C1=C(CCNc2ncnc3sccc23)CCCCC1 [Compound 9] | 81% | – | –
6.80 | – | C1=C(CCNc2ncnc3[nH]ccc23)CCCC1 [Compound 7] | 150% | – | –
6.80 | – | Cc1csc2ncnc(NCCC3=CCCCC3)c12 [Compound 8] | 145% | – | –
6.80 | – | C1=CC[C@@H](CNc2ncnc3c2ncn3C2CC2)CC1 [Compound 48] | 86% | – | –
6.85 | – | C1=C(CCNc2cc(N3CCCCC3)ncn2)CCCC1 [Compound 6] | 98% | – | –
6.92 | – | Fc1ccccc1-n1ncc2c(NCCC3=CCCCC3)ncnc21 [Compound 4] | 105% | – | –
6.92 | – | Fc1ccccc1-n1ncc2c(NCCC3=CCCCCC3)ncnc21 [Compound 5] | 61% | – | –
7.00 | – | C1=C(CCNc2cc(N3CCCC3)ncn2)CCCC1 [Compound 3] | 138% | – | –
7.15 | – | C1=C(CCNc2ncnc3[nH]ccc23)CCCCC1 [Compound 2, N-[2-(cyclohept-1-en-1-yl)ethyl]-7H-pyrrolo[2,3-d]pyrimidin-4-amine] | 94% | – | –
7.15 | – | C1=C(CCNc2ncnc3c2ncn3C2CC2)CCCC1 [Compound 37] | 103% | – | –
7.22 | – | C1=CCC(CNc2ncnc3c2ncn3C2CC2)CC1 (stereo not drawn) [Compound 1, N-[(cyclohex-3-en-1-yl)methyl]-9-cyclopropyl-9H-purin-6-amine] | 149% | – | –
